For this assay, the system named is ΔSite1-PK-riboCdA (RNA, riboswitch) GGGAAGACAAACAUGCCGAAUCCGAAAGGUACCGAGGAACCGCUUUUUGGCGCUAAUCUGCUGUGAAGCAGCAGUAGGGAUACCUUCUGUCCCGCGCGCGACAGCUAACUCGGGAGGGCAUAAAGGAAGGAGAUUUGCAGUG
The assay is described as follows: smFRET, high-FRET. As to conditions: 50 mM Na+, 0.75 mM Mg2+; 10 mM Tris-HCl pH 8.0, room temperature.

Consider `Nc1ncnc2c1ncn2[C@@H]1O[C@@H]2COP(=O)(O)O[C@H]3[C@@H](O)[C@H](n4cnc5c(N)ncnc54)O[C@@H]3COP(=O)(O)O[C@H]2[C@H]1O`, for which the EC50 is given as ~ 78.9 μM.
